For this assay, the target named is human RORgammaT-Ligand Binding Domain (LBD) (Homo sapiens (Human), UniProt P51449). Briefly: RORγ-Ligand Binding Domain TR-FRET assay (co-activator peptide SRC1_2 recruitment). It is filed as biochemical. As to conditions: HIS-tagged RORγ-LBD 3 nM, biotinylated SRC1 LXXLL peptide 100 nM, incubated overnight at 4° C., 665 nm/615 nm signal quotient; read-out: Fret IC50. The source says:
Activation of RORgammaT activity can be measured using, e.g., biochemical TR-FRET assay. In such an assay, interaction of cofactor-derived peptides with human RORgammaT-Ligand Binding Domain (LBD) can be measured.
To identify novel antagonists of RORgammaT, an assay was developed which employs the interaction of RORgammaT with its co-activator peptide SRC1_2. […] The RORγ-Ligand Binding Domain TR-FRET Assay was run according to the following protocol.
HIS-tagged RORγ-LBD protein was expressed in SF9 cells using a baculovirus expression system. The RORγ-LBD protein was purified by glutathione sepharose chromatography. Separately, SF9 cells not expressing any recombinant protein were lysed and the lysate was added to the purified RORγ-LBD at 0.25 μl lysate (from 10,000 SF9 cells)/nM purified protein. The mixture was then diluted in assay buffer (50 mM Tris pH 7.0, 50 mM KCl, 1 mM EDTA, 0.1 mM DTT) to obtain RORγ-LBD final concentration of 3 nM in 384-well assay plate.
Compounds to be tested were injected to the assay plate using Acoustic Droplet Ejection technology by Echo 550 liquid handler (Labcyte, Calif.).
A general note: In TR-FRET formats the signal depends on donor and acceptor labels being close together.
human RORgammaT-Ligand Binding Domain (LBD), sequence (P51449 269-508): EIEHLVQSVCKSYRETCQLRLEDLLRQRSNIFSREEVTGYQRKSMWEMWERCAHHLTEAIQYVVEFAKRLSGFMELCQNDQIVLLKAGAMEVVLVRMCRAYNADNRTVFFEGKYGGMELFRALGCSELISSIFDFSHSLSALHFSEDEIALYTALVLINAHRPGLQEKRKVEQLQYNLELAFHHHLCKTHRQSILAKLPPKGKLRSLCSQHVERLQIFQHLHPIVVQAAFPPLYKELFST
Broadly, the IC50 is the midpoint of a concentration-inhibition curve. For `O=C(O)C1CC=C(c2cn(C(=O)c3c(Cl)cccc3C(F)(F)F)c3cccc(F)c23)CC1` (centres unmarked) [Example 5A, 4-(1-(2-chloro-6-(trifluoromethyl)benzoyl)-4-fluoro-1H-indol-3-yl)cyclohex-3-enecarboxylic acid], the IC50 was 4 nM. The same measure for `O=C(O)C1CCC(c2nn(C(=O)c3c(Cl)cccc3C(F)(F)F)c3cccc(F)c23)=CC1O` (centres unmarked) [Example 6A, 4-(1-(2-chloro-6-(trifluoromethyl)benzoyl)-4-fluoro-1H-indazol-3-yl)-2-hydroxycyclohex-3-enecarboxylic acid]: 2 nM.

As to `O=C(O)C1CC=C(c2nn(C(=O)c3c(Cl)cccc3C(F)(F)F)c3cccc(F)c23)CC1O` (centres unmarked) [Example 6B, 4-(1-(2-chloro-6-(trifluoromethyl)benzoyl)-4-fluoro-1H-indazol-3-yl)-6-hydroxycyclohex-3-enecarboxylic acid], the concentration for half-maximal inhibition (IC50) is 15 nM. The same measure for `CC1(c2nn(C(=O)c3c(Cl)cccc3C(F)(F)F)c3cccc(F)c23)CCC(C(=O)O)CC1` (centres unmarked) [Example 7A, 4-(1-(2-chloro-6-(trifluoromethyl)benzoyl)-4-fluoro-1H-indazol-3-yl)-4-methylcyclohexanecarboxylic acid]: 1880 nM; for `C[C@]1(c2nn(C(=O)c3c(Cl)cccc3C(F)(F)F)c3cccc(F)c32)CC[C@H](C(=O)O)CC1` [Example 7B, (trans)-4-(1-(2-chloro-6-(trifluoromethyl)benzoyl)-4-fluoro-1H-indazol-3-yl)-4-methyl cyclohexanecarboxylic acid]: 663 nM; for `C[C@]1(c2nn(C(=O)c3c(Cl)cccc3C(F)(F)F)c3cccc(F)c32)CC[C@@H](C(=O)O)CC1` [Example 7C, (cis)-4-(1-(2-chloro-6-(trifluoromethyl)benzoyl)-4-fluoro-1H-indazol-3-yl)-4-methylcyclohexanecarboxylic acid]: 872 nM. On to `C[C@]1(C(=O)O)CC[C@H](c2nn(C(=O)c3c(Cl)cccc3C(F)(F)F)c3cccc(F)c32)CC1` [Example 9A, (trans)-4-(1-(2-chloro-6-(trifluoromethyl)benzoyl)-4-fluoro-1H-indazol-3-yl)-1-methylcyclohexanecarboxylic acid], for which the IC50 is 50 nM. As for `C[C@]1(C(=O)O)CC[C@@H](c2nn(C(=O)c3c(Cl)cccc3C(F)(F)F)c3cccc(F)c32)CC1` [Example 9B, (cis)-4-(1-(2-chloro-6-(trifluoromethyl)benzoyl)-4-fluoro-1H-indazol-3-yl)-1-methylcyclohexanecarboxylic acid], the half-maximal inhibitory concentration (IC50) is 5020 nM.

As to `O=C(c1c(Cl)cccc1C(F)(F)F)n1nc([C@H]2CC[C@H](C(=O)O)CC2)c2ncccc21` [Example 11A, (trans)-4-(1-(2-chloro-6-(trifluoromethyl)benzoyl)-1H-pyrazolo[4,3-b]pyridin-3-yl)cyclohexanecarboxylic acid], the IC50 stood at 207 nM. The result for `O=C(c1c(Cl)cccc1C(F)(F)F)n1nc([C@H]2CC[C@@H](C(=O)O)CC2)c2ncccc21` [Example 11B, (cis)-4-(1-(2-chloro-6-(trifluoromethyl)benzoyl)-1H-pyrazolo[4,3-b]pyridin-3-yl)cyclohexanecarboxylic acid] reads 10000 nM; that for `O=C(O)C1CCC(O)(c2nn(C(=O)c3c(Cl)cccc3C(F)(F)F)c3cccc(F)c23)CC1` (centres unmarked) [Example 13A, 4-(1-(2-chloro-6-(trifluoromethyl)benzoyl)-4-fluoro-1H-indazol-3-yl)-4-hydroxycyclohexanecarboxylic acid], 2470 nM.

The values above are taken from patent US9487490B2, “3-cyclohexenyl and cyclohexyl substituted indole and indazole compounds as RORgammaT inhibitors and uses thereof” (Merck Sharp & Dohme Corp., priority 2012, dated 2016).
